Source: patent publication US20100137222A1, “Basic Peptides and Their Use as Combined Antibacterial-Antifungine Agents” (NOVABIOTICS LIMITED, priority 2007, published 2010)
Where two headings read alike, the source gives them in different places. Marks after values point to notes of the source that are not given here. No end group written: not given here.

Key:
M. furfur DSM6170 = assay type: cell-based, Malassezia furfur
Description: Broth Dilution Antifungal Susceptibility Testing
The sensitivity of relevant fungal strains to peptides was determined using Clinical Laboratory Standard Institute (CLSI; formerly NCCLS) Approved Standards. Yeast susceptibility was tested using “Reference Method for Broth Dilution Antifungal Susceptibility Testing of Yeasts; Approved Standard—Second Edition M27-A”.

P. acnes DSM1897 = assay type: cell-based, Propionibacterium acnes
Description: Broth Dilution Antibacterial Susceptibility Testing
The sensitivity of relevant bacterial strains to peptides was determined using Clinical Laboratory Standard Institute (CLSI; formerly NCCLS) Approved Standards. Bacterial susceptibility was tested using “Methods for Dilution Antimicrobial Susceptibility Tests for Bacteria That Grow […]; Approved Standard—Seventh Edition M7-A7”

[1] = Table 3, starred values (*value in mg/ml)
[2] = Table 1, starred values (*value in mM)

Molecule: N=C(N)NCCC[C@H](NC(=O)[C@H](CCCNC(=N)N)NC(=O)[C@H](CCCNC(=N)N)NC(=O)[C@H](CCCNC(=N)N)NC(=O)[C@H](CCCNC(=N)N)NC(=O)[C@H](CCCNC(=N)N)NC(=O)[C@H](CCCNC(=N)N)NC(=O)[C@H](CCCNC(=N)N)NC(=O)[C@H](CCCNC(=N)N)NC(=O)[C@H](CCCNC(=N)N)NC(=O)[C@@H](N)CCCNC(=N)N)C(=O)O [NP317]
- Antimicrobial Activity (MIC) M. furfur DSM6170 (M. furfur DSM6170; DSM6170): <0.0156 mM
- MIC against Malassezia furfur DSM6170 (M. furfur DSM6170; Table 3, unstarred values): <0.0156 mM
- Antimicrobial Activity (MIC) P. acnes DSM1897 (P. acnes DSM1897; DSM1897): <0.0156 mM

Molecule: N=C(N)NCCC[C@H](NC(=O)[C@H](CCCNC(=N)N)NC(=O)[C@H](CCCNC(=N)N)NC(=O)[C@H](CCCNC(=N)N)NC(=O)[C@H](CCCNC(=N)N)NC(=O)[C@H](CCCNC(=N)N)NC(=O)[C@H](CCCNC(=N)N)NC(=O)[C@H](CCCNC(=N)N)NC(=O)[C@H](CCCNC(=N)N)NC(=O)[C@H](CCCNC(=N)N)NC(=O)[C@H](CCCNC(=N)N)NC(=O)[C@H](CCCNC(=N)N)NC(=O)[C@@H](N)CCCNC(=N)N)C(=O)O [NP337]
- Antimicrobial Activity (MIC) M. furfur DSM6170 (M. furfur DSM6170; DSM6170): 0.03125 mM
- Antimicrobial Activity (MIC) P. acnes DSM1897 (P. acnes DSM1897; DSM1897): 0.0025 mM

Molecule: CC(=O)N[C@@H](CCCNC(=N)N)C(=O)N[C@@H](CCCNC(=N)N)C(=O)N[C@@H](CCCNC(=N)N)C(=O)N[C@@H](CCCNC(=N)N)C(=O)N[C@@H](CCCNC(=N)N)C(=O)N[C@@H](CCCNC(=N)N)C(=O)N[C@@H](CCCNC(=N)N)C(=O)N[C@@H](CCCNC(=N)N)C(=O)N[C@@H](CCCNC(=N)N)C(=O)N[C@@H](CCCNC(=N)N)C(=O)N[C@@H](CCCNC(=N)N)C(=O)N[C@@H](CCCNC(=N)N)C(=O)N[C@@H](CCCNC(=N)N)C(N)=O [NP338]
- Antimicrobial Activity (MIC) M. furfur DSM6170 (M. furfur DSM6170; DSM6170): <0.0156 mM
- MIC against Malassezia furfur DSM6170 (M. furfur DSM6170; Table 3, unstarred values): <0.0156 mM
- Antimicrobial Activity (MIC) P. acnes DSM1897 (P. acnes DSM1897; DSM1897): 0.005 mM

Molecule: N=C(N)NCCC[C@@H](N)C(=O)N[C@H](CCCNC(=N)N)C(=O)N[C@H](CCCNC(=N)N)C(=O)N[C@H](CCCNC(=N)N)C(=O)N[C@H](CCCNC(=N)N)C(=O)N[C@H](CCCNC(=N)N)C(=O)N[C@H](CCCNC(=N)N)C(=O)N[C@H](CCCNC(=N)N)C(=O)N[C@H](CCCNC(=N)N)C(=O)N[C@H](CCCNC(=N)N)C(=O)N[C@H](CCCNC(=N)N)C(=O)N[C@H](CCCNC(=N)N)C(=O)N[C@H](CCCNC(=N)N)C(=O)O [NP339, dRdRdRdRdRdRdRdRdRdRdRdRdR]
- Antimicrobial Activity (MIC) M. furfur DSM6170 (M. furfur DSM6170; DSM6170): 0.008 mM
- Antimicrobial Activity (MIC) P. acnes DSM1897 (P. acnes DSM1897; DSM1897): 0.02 mM

Molecule: CC(=O)N[C@H](CCCNC(=N)N)C(=O)N[C@H](CCCNC(=N)N)C(=O)N[C@H](CCCNC(=N)N)C(=O)N[C@H](CCCNC(=N)N)C(=O)N[C@H](CCCNC(=N)N)C(=O)N[C@H](CCCNC(=N)N)C(=O)N[C@H](CCCNC(=N)N)C(=O)N[C@H](CCCNC(=N)N)C(=O)N[C@H](CCCNC(=N)N)C(=O)N[C@H](CCCNC(=N)N)C(=O)N[C@H](CCCNC(=N)N)C(=O)N[C@H](CCCNC(=N)N)C(=O)N[C@H](CCCNC(=N)N)C(N)=O [NP340, Ac-dRdRdRdRdRdRdRdRdRdRdRdRdR-NH2]
- Antimicrobial Activity (MIC) M. furfur DSM6170 (M. furfur DSM6170; DSM6170): 0.008 mM
- Antimicrobial Activity (MIC) P. acnes DSM1897 (P. acnes DSM1897; DSM1897): 0.02 mM

Molecule: (H)n, n = 32-161, HCl salt (5-25 kDa) [NP131]
- MIC against Malassezia furfur DSM6170 (M. furfur DSM6170; [1]): 0.0625* mg/ml

Molecule: (H)n, n = >32, HCl salt (>5 kDa) [NP132]
- MIC against Malassezia furfur DSM6170 (M. furfur DSM6170; [1]): 0.0625* mg/ml

Molecule: (I-K)n, n = 7-27, HBr salt [NP106]
- Antimicrobial Activity (MIC) M. furfur DSM6170 (M. furfur DSM6170; Table 1, unstarred values): 0.5 mg/mL
- Antimicrobial Activity (MIC) P. acnes DSM1897 (P. acnes DSM1897; Table 1, unstarred values): 0.125 mg/mL

Molecule: (I-K)n, n = 100-200, HCl salt [NP101]
- Antimicrobial Activity (MIC) P. acnes DSM1897 (P. acnes DSM1897; Table 1, unstarred values): 0.1 mg/mL

Molecule: (R)n, n = 28-86, HCl salt (5-15 kDa) [NP121]
- MIC against Malassezia furfur DSM6170 (M. furfur DSM6170; [1]): 0.25* mg/ml

Molecule: (R)n, n = 86-402, HCl salt (15-70 kDa) [NP122]
- MIC against Malassezia furfur DSM6170 (M. furfur DSM6170; [1]): 0.25* mg/ml

Molecule: GKKEKPEKKVKK [NP331]
- Antimicrobial Activity (MIC) P. acnes DSM1897 (P. acnes DSM1897; DSM1897): >2 mM

Molecule: KKKDKVKK [NP334]
- Antimicrobial Activity (MIC) P. acnes DSM1897 (P. acnes DSM1897; DSM1897): >2 mM

Molecule: KKKKK [NP343, KKKKK]
- Antimicrobial Activity (MIC) P. acnes DSM1897 (P. acnes DSM1897; DSM1897): >10* mM

Molecule: KKKKKEGKKQEKMLD [NP333]
- Antimicrobial Activity (MIC) P. acnes DSM1897 (P. acnes DSM1897; DSM1897): >2 mM

Molecule: KKKKKKK [NP344, KKKKKKK]
- Antimicrobial Activity (MIC) M. furfur DSM6170 (M. furfur DSM6170; DSM6170): 1* mM
- Antimicrobial Activity (MIC) P. acnes DSM1897 (P. acnes DSM1897; DSM1897): >10* mM

Molecule: KKKKKKKKK [NP345]
- Antimicrobial Activity (MIC) P. acnes DSM1897 (P. acnes DSM1897; DSM1897): 2.5* mM

Molecule: KKKKKKKKKKKKKKK [NP348]
- Antimicrobial Activity (MIC) M. furfur DSM6170 (M. furfur DSM6170; [2]): 0.25* mM
- Antimicrobial Activity (MIC) P. acnes DSM1897 (P. acnes DSM1897; [2]): 0.0625* mM

Molecule: KLTKPKPQAESKKKKK [NP332]
- Antimicrobial Activity (MIC) P. acnes DSM1897 (P. acnes DSM1897; DSM1897): >2 mM

Molecule: KVRQGTLKKAR [NP335]
- Antimicrobial Activity (MIC) P. acnes DSM1897 (P. acnes DSM1897; DSM1897): >2 mM

Molecule: PKTKAKAKAKKGKGKD [NP336]
- Antimicrobial Activity (MIC) P. acnes DSM1897 (P. acnes DSM1897; DSM1897): >2 mM

Molecule: RRRRVVRRRR [NP310]
- Antimicrobial Activity (MIC) M. furfur DSM6170 (M. furfur DSM6170; DSM6170): 0.5 mM
- MIC against Malassezia furfur DSM6170 (M. furfur DSM6170; Table 3, unstarred values): 0.5 mM
- Antimicrobial Activity (MIC) P. acnes DSM1897 (P. acnes DSM1897; DSM1897): 0.5 mM

Molecule: RRRVRRR [NP306, RRRVRRR]
- Antimicrobial Activity (MIC) P. acnes DSM1897 (P. acnes DSM1897; DSM1897): 2 mM

Molecule: RRRVVRRR [NP308]
- Antimicrobial Activity (MIC) P. acnes DSM1897 (P. acnes DSM1897; DSM1897): >2 mM

Molecule: RRRWRRR [NP325, RRRWRRR]
- Antimicrobial Activity (MIC) P. acnes DSM1897 (P. acnes DSM1897; DSM1897): 2 mM

Molecule: RRRWWRRR [NP327]
- Antimicrobial Activity (MIC) P. acnes DSM1897 (P. acnes DSM1897; DSM1897): 0.125 mM

Molecule: RRVRR [NP303, RRVRR]
- Antimicrobial Activity (MIC) P. acnes DSM1897 (P. acnes DSM1897; DSM1897): >2 mM

Molecule: RRVRRVRR [NP309]
- Antimicrobial Activity (MIC) P. acnes DSM1897 (P. acnes DSM1897; DSM1897): 1 mM

Molecule: RRVRVR [NP304, RRVRVR]
- Antimicrobial Activity (MIC) P. acnes DSM1897 (P. acnes DSM1897; DSM1897): >2 mM

Molecule: RRVRVRR [NP307, RRVRVRR]
- Antimicrobial Activity (MIC) P. acnes DSM1897 (P. acnes DSM1897; DSM1897): >2 mM

Molecule: RRVVR [NP302, RRVVR]
- Antimicrobial Activity (MIC) P. acnes DSM1897 (P. acnes DSM1897; DSM1897): >2 mM

Molecule: RRVVRR [NP305, RRVVRR]
- Antimicrobial Activity (MIC) P. acnes DSM1897 (P. acnes DSM1897; DSM1897): >2 mM

Molecule: RRVVRRVVRR [NP311]
- Antimicrobial Activity (MIC) P. acnes DSM1897 (P. acnes DSM1897; DSM1897): 2 mM

Molecule: RRWRR [NP322, RRWRR]
- Antimicrobial Activity (MIC) P. acnes DSM1897 (P. acnes DSM1897; DSM1897): 2 mM

Molecule: RRWRRWRR [NP328]
- Antimicrobial Activity (MIC) P. acnes DSM1897 (P. acnes DSM1897; DSM1897): 0.5 mM

Molecule: RRWRWR [NP323, RRWRWR]
- Antimicrobial Activity (MIC) P. acnes DSM1897 (P. acnes DSM1897; DSM1897): 0.5 mM

Molecule: RRWRWRR [NP326, RRWRWRR]
- Antimicrobial Activity (MIC) P. acnes DSM1897 (P. acnes DSM1897; DSM1897): 0.25 mM

Molecule: RRWWR [NP321, RRWWR]
- Antimicrobial Activity (MIC) P. acnes DSM1897 (P. acnes DSM1897; DSM1897): 1 mM

Molecule: RRWWRR [NP324, RRWWRR]
- Antimicrobial Activity (MIC) P. acnes DSM1897 (P. acnes DSM1897; DSM1897): 0.25 mM

Molecule: RVRVR [NP301, RVRVR]
- Antimicrobial Activity (MIC) P. acnes DSM1897 (P. acnes DSM1897; DSM1897): >2 mM

Molecule: RWRWR [NP320, RWRWR]
- Antimicrobial Activity (MIC) P. acnes DSM1897 (P. acnes DSM1897; DSM1897): 1 mM
